Measured values: patent US20090053722A1, “SDAD ASSAY AND USES THEREOF” (priority 2007, published 2009)
“And” between values parts separate entries of the source, which are not always exact repeats. Identical values can stand only once. “Also recorded” adds a separate entry of the source. Like-named read-outs stand apart in the source and are kept apart here.

Columns and labels:
human sperm [1] = system: human sperm
Protocol: (§1) Sperm were isolated from the seminal plasma as previously described in Brown et al., 1995. The sperm pellet was resuspended in phosphate buffered saline (PBS), pH=7.4, and divided into 4 aliquots. Each aliquot (equal sperm concentrations) was incubated at 37° C. in PBS with H2O2 concentrations of 0, 10, 50, and 100 μM for 15 min and 1 hr. All aliquots were divided into 2 portions. One portion was used to determine LPO. The remaining portion was centrifuged at 1500 g for 15 min. at room temperature, the sperm in the pellet resuspended and analyzed in the HSAA.

human sperm [2] = system: human sperm; remark: listed apart in the source
Protocol: Thymidine incorporation into sperm was scored as follows: unlabeled (less than 5 black granules), medium label (from 5 to 25 black granules), and heavy label (more than 25 black granules). Each value is the mean±SD. […] (5a and 5b) ^3H-TTP incorporation after a 5 min incubation in the egg extract.
(§2) In a micro-centrifuge tube, the reaction mix was prepared; 8 μl of sperm suspension (200,000 sperm) was added to 100 μLof frog egg extract that contained 8 μl of ^3H-TTP (8 μCi). At 5 and 15 min, and 2 and 3 hr incubation times in the egg extract, 5 μl aliquots were taken, wet mounts prepared, and phase contrast microscopy used to determine the percentage of sperm that were fully decondensed and recondensed, respectively, scoring 50 nuclei per slide. At the 5 and 15 min, and 2 and 3 hr time points, 25 μl aliquots of the reaction mix was removed and mixed with 75 μl PBS. Two 50 μl cytopreps were made for each aliquote as described by Brown et al., 1992. The dried cytopreps were fixed in one part acetic acid, and three parts cold methanol, and Giemsa stained for 1 hr followed by a 10 min wash in Giemsa buffer. Slides were examined using light microscopy and analyzed using Metamorph software. Autoradiography was performed using cytoprep slides as described by Brown et al. 1995.
The DNA synthesis was determined by autoradiography as previously described in Materials and Methods.

human sperm [3] = system: human sperm; remark: listed apart in the source
Protocol: as §1
The HSAA was performed as described by Brown et al. 1995. Briefly, sperm are washed and permeabilized using lysolecithine.
as §2
Sperm chromatin decondensation and nuclear recondensation were evaluated in sperm exposed to increasing concentrations of H2O2 for 15 min and 1 hr using the HSAA. Sperm were analyzed at different incubation times in the egg extract using the image analysis Methamorph software system. The sperm nuclear activation was scored in 5 categories (FIG. 2): 1) full decondensation: sperm diameter 25-30 μm (FIG. 2C), 2) partial decondensation: sperm diameter <25 μm (FIG. 2B), 3) non-decondensed (FIG. 2A), 4) hyperdecondensed: sperm diameter >(25-30 μm) [FIGS. 2b and c], and 5) full recondensation (FIGS. 2D and E).

sperm = details: comet assay; cited from earlier work
[4] = 10 μM H2O2, 15 min and 1 hr exposures, 5 min incubation in egg extract
[5] = 10 μM H2O2, 15 min and 1 hr exposures, 15 min incubation in egg extract
[6] = 50 μM H2O2, 15 min exposure, 5 min incubation in egg extract
[7] = 50 μM H2O2, 15 min exposure, 15 min incubation in egg extract
[8] = 50 μM H2O2, 15 min exposure, 3 hr incubation in egg extract
[9] = 50 μM H2O2, 1 hr exposure, 5 min incubation in egg extract
[10] = 50 μM H2O2, 1 hr exposure, 15 min incubation in egg extract
[11] = 50 μM H2O2, 1 hr exposure, 2 hr incubation in egg extract
[12] = 50 μM H2O2, 1 hr exposure, 3 hr incubation in egg extract
[13] = 100 μM H2O2, 15 min exposure, 5 min incubation in egg extract
[14] = 100 μM H2O2, 15 min exposure, 15 min incubation in egg extract
[15] = 100 μM H2O2, 15 min exposure, 3 hr incubation in egg extract
[16] = 100 μM H2O2, 1 hr exposure, 5 min incubation in egg extract
[17] = 100 μM H2O2, 1 hr exposure, 15 min incubation in egg extract
[18] = 100 μM H2O2, 1 hr exposure, 2 hr incubation in egg extract
[19] = 100 μM H2O2, 1 hr exposure, 3 hr incubation in egg extract
[20] = 50 μM H2O2, 15 min exposure, 2 and 3 hr incubation in egg extract (combined)
[21] = 50 μM H2O2, 1 hr exposure, 2 and 3 hr incubation in egg extract (combined)
[22] = 100 μM H2O2, 15 min and 1 hr exposures, 5 min incubation in egg extract
[23] = 100 μM H2O2, 15 min exposure, 2 and 3 hr incubation in egg extract (combined)
[24] = 100 μM H2O2, 1 hr exposure, 2 and 3 hr incubation in egg extract (combined)

With `OO` [H2O2, hydrogen peroxide] the “lipid peroxidation (MDA and hydroxyalkenals), means compared to the untreated control sperm” value (human sperm [1]; 10, 50 and 100 μM H2O2, 1 hr exposure) was “significantly different”, the “lipid peroxidation (MDA and hydroxyalkenals), means compared to the untreated control sperm” value (human sperm [1]; 50 and 100 μM H2O2, 15 min exposure) was “significantly different” and the 3H-TTP incorporation (human sperm [2]; 10 μM H2O2, 15 min and 1 hr exposure, 2 and 3 hr incubations in frog egg extract) was “normal ^3H-TTP incorporation”. The “sperm positive for 3H-TTP incorporation” value (human sperm [2]; [4]) was “No sperm were positive for ^3H-TTP incorporation; also recorded: no incorporation of ^3H-TTP”, the “sperm positive for 3H-TTP incorporation” value (human sperm [2]; [5]) was “No sperm were positive for ^3H-TTP incorporation; also recorded: no incorporation of ^3H-TTP” and the “sperm heavily labeled by 3H-TTP” value (human sperm [2]; 10 μM H2O2, 15 min and 1 hr exposures, 2 hr incubation in egg extract) was 99±1%. The “sperm heavily labeled by 3H-TTP” value (human sperm [2]; 10 μM H2O2, 15 min and 1 hr exposures, 3 hr incubation in egg extract) was 98±2%, the “sperm with medium 3H-TTP labeling” value (human sperm [2]; 50 μM H2O2, 15 min exposure (first of '50 and 100 μM for 15 min and 1 hr, respectively'), 2 hr incubation in egg extract) was “approximately 14.5±4%” and the “sperm heavily labeled by 3H-TTP” value (human sperm [2]; [6]) was 10±3.5%. The “sperm with medium 3H-TTP labeling” value (human sperm [2]; [6]) was 18±3.5%, the “sperm heavily labeled by 3H-TTP” value (human sperm [2]; [7]) was 10±2% and the “sperm with medium 3H-TTP labeling” value (human sperm [2]; [7]) was “approximately 20±3%”. For the same compound, the “sperm heavily labeled by 3H-TTP” value (human sperm [2]; 50 μM H2O2, 15 min exposure, 2 hr incubation in egg extract) was 85±5%, the “sperm heavily labeled by 3H-TTP” value (human sperm [2]; [8]) was “approximately 78±6%” and the “sperm with medium 3H-TTP labeling” value (human sperm [2]; [8]) was “approximately 16.5±2%”. The “sperm heavily labeled by 3H-TTP” value (human sperm [2]; [9]) was 28±2%, the “sperm with medium 3H-TTP labeling” value (human sperm [2]; [9]) was 36±3% and the “sperm heavily labeled by 3H-TTP” value (human sperm [2]; [10]) was 17.5±7.5%. For the same compound, the “sperm with medium 3H-TTP labeling” value (human sperm [2]; [10]) was “Approximately 21±5%”, the “sperm heavily labeled by 3H-TTP” value (human sperm [2]; [11]) was 56.5±3% and the “sperm with medium 3H-TTP labeling” value (human sperm [2]; [11]) was “Approximately 36±2%”. For the same compound, the “sperm heavily labeled by 3H-TTP” value (human sperm [2]; [12]) was “Approximately 75±3%”, the “sperm with medium 3H-TTP labeling” value (human sperm [2]; [12]) was “Approximately 25±3%” and the “sperm with medium 3H-TTP labeling” value (human sperm [2]; 100 μM H2O2 (second of '50 and 100 μM for 15 min and 1 hr, respectively'), 2 hr incubation in egg extract) was ~43.5±5%. For the same compound, the “sperm heavily labeled by 3H-TTP” value (human sperm [2]; [13]) was 15±5%, the “sperm with medium 3H-TTP labeling” value (human sperm [2]; [13]) was “Approximately 25±5%” and the “sperm heavily labeled by 3H-TTP” value (human sperm [2]; [14]) was 50±5%. The “sperm with medium 3H-TTP labeling” value (human sperm [2]; [14]) was ~30±10%, the “sperm heavily labeled by 3H-TTP” value (human sperm [2]; 100 μM H2O2, 15 min exposure, 2 hr incubation in egg extract) was “Approximately 64±2%” and the “sperm heavily labeled by 3H-TTP” value (human sperm [2]; [15]) was ~85±5%. For the same compound, the “sperm with medium 3H-TTP labeling” value (human sperm [2]; [15]) was ~14.5±3%, the “sperm heavily labeled by 3H-TTP” value (human sperm [2]; [16]) was 31±3% and the “sperm with medium 3H-TTP labeling” value (human sperm [2]; [16]) was ~48±2%. For the same compound, the “sperm heavily labeled by 3H-TTP” value (human sperm [2]; [17]) was 45±9%, the “sperm with medium 3H-TTP labeling” value (human sperm [2]; [17]) was ~37±9% and the “sperm heavily labeled by 3H-TTP” value (human sperm [2]; [18]) was ~71±3%. The “sperm with medium 3H-TTP labeling” value (human sperm [2]; [18]) was ~28.5±2.5%, the “sperm heavily labeled by 3H-TTP” value (human sperm [2]; [19]) was ~60±4% and the “sperm with medium 3H-TTP labeling” value (human sperm [2]; [19]) was ~40±4%. The recondensed sperm (human sperm [3]; 10 μM H2O2, 15 min and 1 hr exposure, 2 and 3 hr incubation in egg extract (combined)) was 98±2%, the partially decondensed sperm (human sperm [3]; [4]) was “Approximately 30%” and the recondensed sperm (human sperm [3]; [4]) was “No recondensed sperm were observed”. For the same compound, the “sperm showing no decondensation” value (human sperm [3]; [4]) was 35-40%, the fully decondensed sperm (human sperm [3]; [5]) was “Approximately 94%” and the fully decondensed sperm (human sperm [3]; 10 μM H2O2, 15 min exposure, 5 min incubation in egg extract) was “Approximately 28±4%”. For the same compound, the recondensed sperm (human sperm [3]; 10 μM H2O2, 15 min exposure, 15 min incubation in egg extract) was “No recondensed sperm were observed”, the fully decondensed sperm (human sperm [3]; 10 μM H2O2, 1 hr exposure, 5 min incubation in egg extract) was ~30±6% and the non-decondensed sperm (human sperm [3]; 10 μM H2O2, both time points (15 min and 1 hr exposure), 15 min incubation in egg extract) was “Approximately 5%”. For the same compound, the hyper-decondensed sperm (human sperm [3]; 10 μM H2O2, 2 and 3 hr incubation in egg extract (combined)) was “No sperm were hyper-decondensed”, the hyperdecondensed sperm (human sperm [3]; 10 μM H2O2, 5 min incubation in egg extract) was “No sperm were hyperdecondensed” and the hyperdecondensed sperm (human sperm [3]; 10 μM H2O2, 15 min incubation in egg extract) was “No sperm were hyperdecondensed”. For the same compound, the partially decondensed sperm (human sperm [3]; 50 μM H2O2, 15 min and 1 hr exposures, 5 min incubation in egg extract) was “Approximately 1%”, the hyper-decondensed sperm (human sperm [3]; [20]) was 35.2% and the recondensed sperm (human sperm [3]; [20]) was 66±2.3%. It also gave a fully decondensed sperm (human sperm [3]; [6]) of 43.3±3.7%, a hyperdecondensed sperm (human sperm [3]; [6]) of 38.4% and a non-decondensed sperm (human sperm [3]; [6]) of 15±3%. The recondensed sperm (human sperm [3]; [6]) was “No recondensed sperm were observed”, the fully decondensed sperm (human sperm [3]; [7]) was 53±3% and the hyperdecondensed sperm (human sperm [3]; [7]) was 45.2%. For the same compound, the recondensed sperm (human sperm [3]; [7]) was “No recondensed sperm were observed”, the hyper-decondensed sperm (human sperm [3]; [21]) was 30±2% and the recondensed sperm (human sperm [3]; [21]) was 70±3%. For the same compound, the fully decondensed sperm (human sperm [3]; [9]) was 46.6±6%, the hyperdecondensed sperm (human sperm [3]; [9]) was 31±−4% and 31±4% and the non-decondensed sperm (human sperm [3]; [9]) was 18±4%. For the same compound, the recondensed sperm (human sperm [3]; [9]) was 5±3%, the fully decondensed sperm (human sperm [3]; [10]) was 58±2% and the hyperdecondensed sperm (human sperm [3]; [10]) was 30±2%. For the same compound, the recondensed sperm (human sperm [3]; [10]) was 10±2%, the non-decondensed sperm (human sperm [3]; [22]) was 10±2% and the partially decondensed sperm (human sperm [3]; [22]) was “Approximately 1%”. It also gave a hyper-decondensed sperm (human sperm [3]; [23]) of 45±2%, a recondensed sperm (human sperm [3]; [23]) of 57±2% and a fully decondensed sperm (human sperm [3]; [13]) of 56.6±4.7%. The hyperdecondensed sperm (human sperm [3]; [13]) was 26%, the recondensed sperm (human sperm [3]; [13]) was 8±2% and the fully decondensed sperm (human sperm [3]; [14]) was 48±1.5%. It also gave a hyperdecondensed sperm (human sperm [3]; [14]) of 37%, a recondensed sperm (human sperm [3]; [14]) of 15±3% and a hyper-decondensed sperm (human sperm [3]; [24]) of 45±3%. The recondensed sperm (human sperm [3]; [24]) was 54±2%, the fully decondensed sperm (human sperm [3]; [16]) was 64.5±4.5% and the hyperdecondensed sperm (human sperm [3]; [16]) was 11±4%. It also gave a recondensed sperm (human sperm [3]; [16]) of 15±2%, a fully decondensed sperm (human sperm [3]; [17]) of 47±2% and a hyperdecondensed sperm (human sperm [3]; [17]) of 33±3.5%. For the same compound, the recondensed sperm (human sperm [3]; [17]) was 20±2%, the “sperm nuclei with abnormal recondensation and nuclear arrest in the hyperdecondensed state” value (human sperm [3]; 50 and 100 μM H2O2, 3 hr incubation in egg extract) was 33-42% and the non-decondensed sperm (human sperm [3]; any other H2O2 concentrations (50, 100 μM) at any of the time points, 15 min incubation in egg extract) was “no sperm were non-decondensed”. For the same compound, the “H2O2 concentration at which induction of DNA fragmentation was significant” value (sperm) was 200 µM.
